# Test results published in patent US10517889B2, “Modulators of SMAD7 expression” (Ionis Pharmaceuticals, Inc., priority 2017, dated 2019).
# Strand notation (5' to 3'): a small letter for the sugar, then the base; units joined by * are phosphorothioate-linked, units joined directly phosphodiester-linked; [ ] holds rarer units or linkages, { } end groups; capitals alone tell only the bases. k = constrained ethyl (cEt); [5mC] = 5-methylcytosine; d = 2'-deoxy (DNA)
# Test system: human SMAD7 mRNA
# Assay: Antisense inhibition of human SMAD7 mRNA expression in Hep3B cells by 3-10-3 cEt gapmers, 10,000 nM, electroporation (Example 2)
# Assay type: cell-based
# Conditions: approximately 24 hours
# Method: Antisense oligonucleotides were designed to target human SMAD7 mRNA and were tested for their effects on SMAD7 mRNA expression in vitro. The antisense oligonucleotides were tested in a series of experiments that had similar culture conditions, as described below. ION 771576, described in the studies above and which is a 5-10-5 MOE gapmer, was also included in these assays. Cultured Hep3B cells at a density of 20,000 cells per well were transfected using electroporation with 10,000 nM antisense oligonucleotide. After a treatment period of approximately 24 hours, RNA was isolated from the cells and SMAD7 mRNA levels were measured by quantitative real-time PCR. Primer probe set RTS5062 was used to measure human SMAD7 mRNA levels. SMAD7 mRNA levels were adjusted according to total RNA content, as measured by RIBOGREEN®. Results are presented as percent inhibition of SMAD7 mRNA expression, relative to untreated control cells.
# The newly designed chimeric antisense oligonucleotides in the Tables below were designed as 3-10-3 cEt gapmers. The gapmers are 16 nucleosides in length, wherein the central gap segment comprises often 2′-deoxynucleosides and is flanked by wing segments on the 5′ direction and the 3′ direction comprising three nucleosides each. Each nucleoside in the 5′ wing segment and each nucleoside in the 3′ wing segment has a cEt sugar modification. The internucleoside linkages throughout each gapmer are phosphorothioate (P═S) linkages. All cytosine residues throughout each gapmer are 5-methylcytosines.
# “Start site” indicates the 5′-most nucleoside to which the gapmer is targeted in the human gene sequence. “Stop site” indicates the 3′-most nucleoside to which the gapmer is targeted human gene sequence. […] Some of the oligonucleotides presented were complementary to SMAD7 mRNA sequences RefSeqNo. NM_001190821.1 (designated herein as SEQ ID NO: 3) or RefSeqNo. NM_001190822.1 (designated herein as SEQ ID NO: 4), and are presented in a separate table shown below.
# [1] = SMAD7 mRNA, Hep3B cells, 10,000 nM antisense oligonucleotide, electroporation, primer probe set RTS5062, relative to untreated control cells
# [2] = Hep3B cells, electroporation, 10,000 nM antisense oligonucleotide, RTS5062, relative to untreated control cells
# [3] = Hep3B cells, electroporation with 10,000 nM antisense oligonucleotide, RTS5062, percent inhibition of SMAD7 mRNA relative to untreated control cells
# [4] = Hep3B cells, electroporation with 10,000 nM antisense oligonucleotide, primer probe set RTS5062, relative to untreated control cells
# [5] = Hep3B cells, electroporation with 10,000 nM antisense oligonucleotide, SMAD7 mRNA by RT-PCR (RTS5062), relative to untreated control cells
substance,measurement,setting,value
790697 (kA*kT*kT*d[5mC]*dA*dG*dG*dG*dT*dG*dT*d[5mC]*dA*kG*k[5mC]*k[5mC]; antisense) [compound 790697],% Inhibition,[1],59%
790701 (kG*kG*kA*dT*dA*d[5mC]*dA*d[5mC]*dT*dT*dA*dA*dT*k[5mC]*kA*kA; antisense) [compound 790701],% Inhibition,[1],57%
790710 (kG*kG*kG*dA*dA*dA*dT*dG*dT*dT*d[5mC]*dT*dA*k[5mC]*k[5mC]*kT; antisense) [compound 790710],% inhibition of SMAD7 mRNA expression,[2],15%
790714 (kA*kG*k[5mC]*d[5mC]*dA*dG*dT*dT*dA*dA*dT*d[5mC]*dA*kT*kT*kA; antisense) [compound 790714],% Inhibition,[3],11%
790715 (kT*kG*kT*d[5mC]*dA*d[5mC]*d[5mC]*d[5mC]*dG*dT*d[5mC]*dT*dG*kG*kG*k[5mC]; antisense) [compound 790715],% Inhibition,[3],16%
790719 (kG*kG*kA*d[5mC]*dA*dG*dT*d[5mC]*dT*dG*d[5mC]*dT*dG*kT*kG*kG; antisense) [compound 790719],% inhibition of SMAD7 mRNA expression,[2],86%
790741 (kA*kT*kT*dA*dA*dG*d[5mC]*d[5mC]*d[5mC]*dG*d[5mC]*dT*d[5mC]*kT*k[5mC]*kA; antisense) [compound 790741],% Inhibition,[1],30%
790747 (kG*kT*kA*d[5mC]*dA*dA*dT*d[5mC]*dT*d[5mC]*d[5mC]*dT*dG*kG*kA*kA; antisense) [compound 790747],% Inhibition,[1],8%
790754 (k[5mC]*kT*kA*dA*dG*d[5mC]*dT*dA*d[5mC]*dT*dT*dG*dG*kT*kT*kT; antisense) [compound 790754],% Inhibition,[1],38%
790775 (kT*kA*k[5mC]*dA*dA*dG*dG*dT*dG*dA*dA*dA*dG*kT*kT*kA; antisense) [compound 790775],% Inhibition,[1],7%
790791 (kG*kG*kG*d[5mC]*dA*d[5mC]*dA*d[5mC]*d[5mC]*dA*d[5mC]*d[5mC]*dT*kG*k[5mC]*k[5mC]; antisense) [compound 790791],% Inhibition,[1],7%
790847 (kT*k[5mC]*kT*dT*dA*d[5mC]*dA*dA*dA*dG*dA*dG*dT*kT*kA*kT; antisense) [compound 790847],% Inhibition,"Hep3B cells, 10,000 nM antisense oligonucleotide, electroporation, RT-PCR primer probe set RTS5062, relative to untreated control cells",24%
790855 (kA*k[5mC]*k[5mC]*dT*dT*dT*dT*d[5mC]*d[5mC]*dG*dG*dT*dA*kT*kT*kT; antisense) [compound 790855],% Inhibition,[1],40%
790871 (kT*kG*kT*dT*dA*dG*dG*dA*d[5mC]*d[5mC]*dT*dG*dG*kG*kA*kA; antisense) [compound 790871],% Inhibition,[1],39%
790874 (k[5mC]*k[5mC]*kG*dG*dA*dA*dG*dT*d[5mC]*dT*dT*dG*dT*kA*kT*kT; antisense) [compound 790874],% Inhibition,[1],0%
798654 (k[5mC]*k[5mC]*k[5mC]*dT*dG*d[5mC]*dG*d[5mC]*dG*dG*d[5mC]*dT*d[5mC]*kT*k[5mC]*k[5mC]; antisense) [compound 798654],% inhibition of SMAD7 mRNA expression,[4],23%
798655 (kG*kG*k[5mC]*d[5mC]*d[5mC]*dG*d[5mC]*dG*d[5mC]*d[5mC]*d[5mC]*dT*dG*k[5mC]*kG*k[5mC]; antisense) [compound 798655],% inhibition of SMAD7 mRNA expression,[4],21%
798656 (k[5mC]*kG*k[5mC]*dG*dG*d[5mC]*d[5mC]*d[5mC]*dG*d[5mC]*dG*d[5mC]*d[5mC]*k[5mC]*kT*kG; antisense) [compound 798656],% inhibition of SMAD7 mRNA expression,[4],10%
798657 (k[5mC]*k[5mC]*kG*d[5mC]*dG*d[5mC]*dG*dG*d[5mC]*d[5mC]*d[5mC]*dG*d[5mC]*kG*k[5mC]*k[5mC]; antisense) [compound 798657],% inhibition of SMAD7 mRNA expression,[4],0%
798658 (kA*k[5mC]*k[5mC]*d[5mC]*d[5mC]*dG*d[5mC]*dG*d[5mC]*dG*dG*d[5mC]*d[5mC]*k[5mC]*kG*k[5mC]; antisense) [compound 798658],% inhibition of SMAD7 mRNA expression,[4],71%
798659 (k[5mC]*k[5mC]*k[5mC]*dA*d[5mC]*d[5mC]*d[5mC]*d[5mC]*dG*d[5mC]*dG*d[5mC]*dG*kG*k[5mC]*k[5mC]; antisense) [compound 798659],% inhibition of SMAD7 mRNA expression,[4],58%
798660 (kT*kG*k[5mC]*d[5mC]*d[5mC]*d[5mC]*dA*d[5mC]*d[5mC]*d[5mC]*d[5mC]*dG*d[5mC]*kG*k[5mC]*kG; antisense) [compound 798660],% inhibition of SMAD7 mRNA expression,[4],38%
798661 (kG*kG*k[5mC]*dT*dG*d[5mC]*d[5mC]*d[5mC]*d[5mC]*dA*d[5mC]*d[5mC]*d[5mC]*k[5mC]*kG*k[5mC]; antisense) [compound 798661],% inhibition of SMAD7 mRNA expression,[4],52%
798663 (kT*kG*k[5mC]*dG*d[5mC]*dT*d[5mC]*d[5mC]*dG*dG*d[5mC]*dT*dG*k[5mC]*k[5mC]*k[5mC]; antisense) [compound 798663],% inhibition of SMAD7 mRNA expression,[4],41%
798664 (kG*kG*k[5mC]*d[5mC]*dT*dG*d[5mC]*dG*d[5mC]*dT*d[5mC]*d[5mC]*dG*kG*k[5mC]*kT; antisense) [compound 798664],% Inhibition,[5],7%
798665 (k[5mC]*kA*kG*dT*d[5mC]*dT*d[5mC]*d[5mC]*d[5mC]*dG*dG*dA*dG*kG*k[5mC]*k[5mC]; antisense) [compound 798665],% Inhibition,[5],7%
798666 (k[5mC]*kA*kT*dG*d[5mC]*dG*d[5mC]*d[5mC]*dA*dG*dT*d[5mC]*dT*k[5mC]*k[5mC]*k[5mC]; antisense) [compound 798666],% Inhibition,[5],33%
798667 (kT*kG*kG*d[5mC]*dA*dT*dG*d[5mC]*dG*d[5mC]*d[5mC]*dA*dG*kT*k[5mC]*kT; antisense) [compound 798667],% Inhibition,[5],21%
798668 (kT*k[5mC]*k[5mC]*dG*dT*dG*dG*d[5mC]*dA*dT*dG*d[5mC]*dG*k[5mC]*k[5mC]*kA; antisense) [compound 798668],% Inhibition,[5],45%
798669 (k[5mC]*kG*k[5mC]*dT*d[5mC]*d[5mC]*dG*dT*dG*dG*d[5mC]*dA*dT*kG*k[5mC]*kG; antisense) [compound 798669],% Inhibition,[5],0%
798670 (kG*kG*k[5mC]*dG*dG*d[5mC]*dG*dG*d[5mC]*d[5mC]*d[5mC]*dG*dA*kG*kG*kG; antisense) [compound 798670],% Inhibition,[5],44%
798671 (antisense kA*kG*k[5mC]*dG*dG*d[5mC]*dG*dG*d[5mC]*dG*dG*d[5mC]*d[5mC]*k[5mC]*kG*kA) [compound 798671],% Inhibition,[5],61%
798672 (antisense kG*kG*k[5mC]*dA*dG*dG*dA*dG*d[5mC]*dG*dG*d[5mC]*dG*kG*k[5mC]*kG) [compound 798672],% inhibition of SMAD7 mRNA expression,[4],6%
798673 (antisense kG*kG*k[5mC]*d[5mC]*d[5mC]*dG*dG*dG*d[5mC]*dA*dG*dG*dA*kG*k[5mC]*kG) [compound 798673],% inhibition of SMAD7 mRNA expression,[4],15%
798674 (antisense k[5mC]*kA*kG*dG*d[5mC]*dG*dA*d[5mC]*dA*dG*d[5mC]*dA*dG*k[5mC]*kA*kG) [compound 798674],% inhibition of SMAD7 mRNA expression,[4],39%
798675 (antisense k[5mC]*kA*kG*dG*d[5mC]*dG*d[5mC]*dA*dG*dG*d[5mC]*dG*dA*k[5mC]*kA*kG) [compound 798675],% inhibition of SMAD7 mRNA expression,[4],51%
798676 (antisense k[5mC]*k[5mC]*kA*dT*dG*dA*dA*dG*dA*dA*dG*dT*d[5mC]*kG*kG*kG) [compound 798676],% inhibition of SMAD7 mRNA expression,[4],21%
798677 (antisense kA*k[5mC]*kA*d[5mC]*d[5mC]*dA*dT*dG*dA*dA*dG*dA*dA*kG*kT*k[5mC]) [compound 798677],% inhibition of SMAD7 mRNA expression,[4],36%
798678 (antisense k[5mC]*kG*k[5mC]*dA*d[5mC]*dA*d[5mC]*d[5mC]*dA*dT*dG*dA*dA*kG*kA*kA) [compound 798678],% Inhibition,[5],45%
798679 (antisense k[5mC]*kT*k[5mC]*d[5mC]*dG*d[5mC]*dA*d[5mC]*dA*d[5mC]*d[5mC]*dA*dT*kG*kA*kA) [compound 798679],% Inhibition,[5],32%
798680 (antisense k[5mC]*kA*kT*dG*dA*d[5mC]*d[5mC]*dT*d[5mC]*d[5mC]*dG*d[5mC]*dA*k[5mC]*kA*k[5mC]) [compound 798680],% Inhibition,[5],31%
798681 (antisense kG*kA*kA*d[5mC]*dA*dT*dG*dA*d[5mC]*d[5mC]*dT*d[5mC]*d[5mC]*kG*k[5mC]*kA) [compound 798681],% Inhibition,[5],29%
